PMC4435632, “Phase 1 study of ixazomib, an investigational proteasome inhibitor, in advanced non-hematologic malignancies” (Investigational New Drugs, 2015)

How the values were obtained:
[1] = tested on: advanced non-hematologic malignancies; test: Disease response (RECIST 1.0 / modified PCWG2); assay type: in vivo, human
From the text: (§1) AEs were monitored throughout the study and were graded according to National Cancer Institute Common Terminology Criteria for Adverse Events (NCI-CTCAE) v3.0. Response assessments were undertaken by investigators using a consistent imaging modality in accordance with RECIST 1.0 [23] on days 18–21 of cycle 2 and subsequent cycles. For patients with prostate cancer, response and progressive disease were based on RECIST for measurable neoplastic disease or on measurement of serum PSA per modified PCWG2 criteria in the absence of measurable sites.
(§2) The safety population included all patients who received ≥1 dose of ixazomib, and the DLT-evaluable population, which was used for determination of the MTD, comprised patients who received all cycle 1 doses of ixazomib or experienced a DLT in cycle 1. […] The response-evaluable population included all patients who received ≥1 dose of ixazomib, had measurable disease at baseline, and had ≥1 post-baseline disease assessment. Approximately 16 response-evaluable patients were planned to be evaluated in each MTD expansion cohort.

[2] = tested on: patients with advanced non-hematologic malignancies; test: Safety: adverse events graded by NCI-CTCAE v3.0, phase 1 study of IV ixazomib; assay type: in vivo
From the text: Patients received ixazomib as an IV bolus on days 1, 4, 8, and 11 of a 21-day cycle, for up to 12 cycles, or until disease progression or unacceptable toxicity. Patients who were thought to potentially benefit from prolonged therapy could receive continued treatment beyond 12 cycles according to the treating physician’s consideration. Patients could receive prophylactic antiviral therapy; prophylactic antidiarrheals and antiemetics were not employed initially but could be considered upon development of diarrhea or nausea/vomiting.
as §1, §2
All efficacy and safety data were summarized using descriptive statistics. Pharmacokinetic and pharmacodynamic parameters were calculated using noncompartmental methods (WinNonlin software v5.3).

[3] = tested on: patients with advanced non-hematologic malignancies; test: Dose-limiting toxicities in cycle 1 and determination of MTD; assay type: in vivo
Experimental: The dose-escalation cohort comprised patients with any non-hematologic malignancy. The four MTD expansion cohorts were limited to patients with non-small cell lung cancer (NSCLC), head and neck cancer (squamous cell cancer), soft tissue sarcoma, and prostate cancer, respectively. In addition, the TPEC was open to patients with non-hematologic malignancy that could be safely biopsied. Dose escalation initially proceeded from a starting dose of 0.125 mg/m^2 of body surface area, with one patient per dose level and dose doubling up to a dose of 1.0 mg/m^2. Dose doubling was permitted until one of the following occurred: one patient experienced a dose-limiting toxicity (DLT) during cycle 1; any two patients experienced a drug-related adverse event (AE) of grade ≥2 during cycle 1; or the dose level of 1 mg/m^2 had been evaluated. Dose escalation then proceeded in 33 % increments following a standard 3 + 3 schema based on the occurrence of DLTs in cycle 1. […]
The safety population included all patients who received ≥1 dose of ixazomib, and the DLT-evaluable population, which was used for determination of the MTD, comprised patients who received all cycle 1 doses of ixazomib or experienced a DLT in cycle 1. […] Approximately 16 response-evaluable patients were planned to be evaluated in each MTD expansion cohort.

CC(C)C[C@H](NC(=O)CNC(=O)c1cc(Cl)ccc1Cl)B(O)O [ixazomib]
Patients with stable disease ([1]; 92 response-evaluable patients): 30 patients | Patients with stable disease lasting for ≥4 cycles ([1]; 92 response-evaluable patients): eight | Patients with partial response ([1]; 92 response-evaluable patients, head and neck cancer, MTD 1.76 mg/m^2): one | Reduction in tumor diameter ([1]; one patient with kidney malignancy, progressive disease at end of study): 14% | Reduction in tumor diameter ([1]; other patient with kidney malignancy, discontinued due to grade 3 acute renal failure): 22% | Total duration of partial response ([1]; patient with head and neck cancer, achieved after 4 cycles, maintained for 8 cycles): 6.7 months | Any on-study deaths ([2]; Dose-escalation cohort (n=23)): 3 (13) n (%) | Any on-study deaths ([2]; MTD expansion cohort H&N (n=22)): 2 (9) n (%) | Any on-study deaths ([2]; MTD expansion cohort NSCLC (n=20)): 0 n (%) | Any on-study deaths ([2]; MTD expansion cohort PC (n=11)): 0 n (%) | Any on-study deaths ([2]; MTD expansion cohort STS (n=20)): 1 (5) n (%) | Any on-study deaths ([2]; MTD expansion cohort TPEC (n=20)): 1 (5) n (%) | Any on-study deaths ([2]; Total (N=116)): 7 (6) n (%) | Drug-related AE: alopecia ([2]; human, in vivo): < 1% | Drug-related AE: circumoral edema ([2]; human, in vivo): < 1% | Drug-related AE: dermatitis acneiform ([2]; human, in vivo): 2% | Drug-related AE: dry skin ([2]; human, in vivo): 2% | Drug-related AE: erythema nodosum ([2]; human, in vivo): < 1% | Drug-related AE: exfoliative rash ([2]; human, in vivo): < 1% | Drug-related AE: night sweats ([2]; human, in vivo): < 1% | Drug-related AE: petechiae ([2]; human, in vivo): < 1% | Drug-related AE: pruritus ([2]; human, in vivo): 4% | Drug-related AE: rash ([2]; human, in vivo): 6% | Drug-related AE: rash erythematous ([2]; human, in vivo): 9% | Drug-related AE: rash macular ([2]; human, in vivo): 13% | Drug-related AE: rash maculo-papular ([2]; human, in vivo): 17% | Drug-related AE: rash papular ([2]; human, in vivo): 10% | Drug-related AE: rash pruritic ([2]; human, in vivo): 13% | Drug-related AE: skin exfoliation ([2]; human, in vivo): < 1% | Drug-related AE: skin hyperpigmentation ([2]; human, in vivo): < 1% | Drug-related AE: swelling face ([2]; human, in vivo): < 1% | Drug-related AE: urticaria ([2]; human, in vivo): < 1% | Drug-related PN NEC ([2]; human, in vivo): 15% | Drug-related PN NEC, grade 1 ([2]; human, in vivo): 6 n | Drug-related PN NEC, grade 2 ([2]; human, in vivo): 8 n | Drug-related grade ≥3 AE: erythema nodosum ([2]; human, in vivo): < 1% | Drug-related grade ≥3 AE: rash ([2]; human, in vivo): < 1% | Drug-related grade ≥3 AE: rash erythematous ([2]; human, in vivo): 2% | Drug-related grade ≥3 AE: rash macular ([2]; human, in vivo): 3% | Drug-related grade ≥3 AE: rash maculo-papular ([2]; human, in vivo): 7% | Drug-related grade ≥3 AE: rash papular ([2]; human, in vivo): < 1% | Drug-related grade ≥3 AE: rash pruritic ([2]; human, in vivo): 3% | Drug-related grade ≥3 fatigue ([2]; human, in vivo): 9% | Drug-related grade ≥3 thrombocytopenia ([2]; human, in vivo): 23% | Drug-related serious AE: dehydration ([2]; human, in vivo): 3% | Drug-related serious AE: fatigue ([2]; human, in vivo): 3% | Drug-related serious AE: nausea ([2]; human, in vivo): 3% | Drug-related serious AE: thrombocytopenia ([2]; human, in vivo): 6% | Drug-related serious AE: vomiting ([2]; human, in vivo): 3% | Drug-related serious AEs ([2]; human, in vivo): 28% | Drug-related thrombocytopenia ([2]; human, in vivo): 45% | Duration of rash, median ([2]; human, in vivo): 15 days | Duration of rash, range ([2]; human, in vivo): 4 to 90 days | Grade 3 PN NEC ([2]; human, in vivo): 3% | Patients who discontinued ixazomib due to treatment-emergent AEs ([2]; human, in vivo): 15% | Patients who required platelet transfusions ([2]; human, in vivo): 4% | Patients with ≥1 drug-related AE ([2]; human, in vivo): 90% | Patients with ≥1 drug-related grade ≥3 AE ([2]; human, in vivo): 57% | Patients with ≥1 treatment-emergent AE ([2]; human, in vivo): 99% | Patients with ≥1 treatment-emergent grade ≥3 AE ([2]; human, in vivo): 72% | Drug-related grade ≥3 skin and subcutaneous (SC) tissue disorders ([2]; human, in vivo, sc): 16% | Treatment-related skin and subcutaneous (SC) tissue disorders ([2]; human, in vivo, sc): 53% | On-study deaths ([2]; none considered treatment-related): seven | MTD (maximum tolerated dose) ([3]; IV on days 1, 4, 8, and 11 of a 21-day cycle): 1.76 mg/m^2 | Patients who experienced DLTs ([3]; in vivo): Five
